We go through 10 molecules from patent US20220409619A1, “INHIBITORS OF HUMAN IMMUNODEFICIENCY VIRUS REPLICATION” (VIIV HEALTHCARE UK (No. 5) LIMITED, priority 2019, published 2022).

The test system of series [1] is recombinant NL4-3 virus (nef section replaced with Renilla luciferase gene) in MT-2 cells. Put plainly: HIV cell culture assay (antiviral activity, luciferase readout). Particulars: Renilla, NL43. Type of series: cell-based. On the procedure:
HIV cell culture assay—MT-2 cells, 293T cells and the proviral DNA clone of NL4-3 virus were obtained from the NIH AIDS Research and Reference Reagent Program. MT-2 cells were propagated in RPMI 1640 media supplemented with 10% heat inactivated fetal bovine serum (FBS), 100 μg/ml penicillin G and up to 100 units/mL streptomycin. The 293T cells were propagated in DMEM media supplemented with 10% heat inactivated FBS, 100 μg/mL penicillin G and 100 μg/mL streptomycin. A recombinant NL4-3 proviral clone, in which a section of the nef gene was replaced with the Renilla luciferase gene, was used to make the reference virus used in these studies. The recombinant virus was prepared through transfection of the recombinant NL4-3 proviral clone into 293T cells using Transit-293 Transfection Reagent from Mirus Bio LLC (Madison, Wis.). Supernatent was harvested after 2-3 days and the amount of virus present was titered in MT-2 cells using luciferase enzyme activity as a marker by measuring luciferase enzyme activity. Luciferase was quantitated using the EnduRen Live Cell Substrate from Promega (Madison, Wis.). Antiviral activities of compounds toward the recombinant virus were quantified by measuring luciferase activity in MT-2 cells infected for 4-5 days with the recombinant virus in the presence of serial dilutions of the compound.
The 50% effective concentration (EC50) was calculated by using the exponential form of the median effect equation where (Fa)=1/[1+(ED50/drug conc.)^m] (Johnson V A, Byington R T. Infectivity Assay. In Techniques in HIV Research. ed. Aldovini A, Walker B D. 71-76. New York: Stockton Press. 1990). Curve fitting and analysis were performed with ActivityBase XE Runner software version 9.1.0.4 using model 203 (ID Business Solutions, LTD, Guildford, UK).

A short description of series [2]: Compound cytotoxicity, XTT-based colorimetric assay. Type of series: cell-based. As to conditions: human; uninfected MT2 cells, day 4, XTT-based colorimetric assay. On the procedure:
Compound cytotoxicity and the corresponding CC50 values were determined using the same protocol as described in the antiviral assay except that uninfected cells were used. Cytotoxicity was assessed on day 4 in uninfected MT2 cells by using a XTT (2,3-bis[2-Methoxy-4-nitro-5-sulfophenyl]-2H-tetrazolium-5-carboxyanilide inner salt)-based colorimetric assay (Sigma-Aldrich, St Louis, Mo.).

SMILES strings stand for the structures.

As for `Cn1nc(NS(C)(=O)=O)c2c(Cl)ccc(-n3c([C@H](Cc4cc(F)cc(F)c4)NC(=O)Cn4nc(C(F)F)c5c4C(F)(F)[C@@H]4C[C@H]54)nc(-c4cnc(C(C)(C)O)s4)cc3=O)c21` (atropisomer, axis not shown; (P)) [Example 25, N-((S)-1-((1P)-1-(4-chloro-1-methyl-3-(methylsulfonamido)-1H-indazol-7-yl)-4-(2-(2-hydroxypropan-2-yl)thiazol-5-yl)-6-oxo-1,6-dihydropyrimidin-2-yl)-2-(3,5-difluorophenyl)ethyl)-2-((3bS,4aR)-3-(difluoromethyl)-5,5-difluoro-3b,4,4a,5-tetrahydro-1H-cyclopropa[3,4]cyclopenta[1,2-c]pyrazol-1-yl)acetamide], in series [1], the EC50 amounted to 1500 pM. Moreover, the CC50 at 4 days in series [2] was more than 100000 pM.
The matching figures for `O=C(Cn1nc(C(F)F)c2c1C(F)(F)[C@@H]1C[C@H]21)N[C@@H](Cc1cc(F)cc(F)c1)c1nc(-c2cccc(F)n2)cc(=O)n1-c1ccc(Cl)c2c(NS(=O)(=O)C3CC3)nn(CC(F)F)c12` (atropisomer, axis not shown; (P)) [Example 28, N-((S)-1-((1P)-1-(4-chloro-3-(cyclopropanesulfonamido)-1-(2,2-difluoroethyl)-1H-indazol-7-yl)-4-(6-fluoropyridin-2-yl)-6-oxo-1,6-dihydropyrimidin-2-yl)-2-(3,5-difluorophenyl)ethyl)-2-((3bS,4aR)-3-(difluoromethyl)-5,5-difluoro-3b,4,4a,5-tetrahydro-1H-cyclopropa[3,4]cyclopenta[1,2-c]pyrazol-1-yl)acetamide]: 390 pM and more than 100000 pM.
In the same order, the values of `COc1cnc(-c2cc(=O)n(-c3ccc(Cl)c4c(NS(=O)(=O)C5CC5)nn(CC(F)F)c34)c([C@H](Cc3cc(F)cc(F)c3)NC(=O)Cn3nc(C(F)F)c4c3C(F)(F)[C@@H]3C[C@H]43)n2)cn1` (atropisomer, axis not shown; (P)) [Example 31, N-((S)-1-((1P)-1-(4-chloro-3-(cyclopropanesulfonamido)-1-(2,2-difluoroethyl)-1H-indazol-7-yl)-4-(5-methoxypyrazin-2-yl)-6-oxo-1,6-dihydropyrimidin-2-yl)-2-(3,5-difluorophenyl)ethyl)-2-((3bS,4aR)-3-(difluoromethyl)-5,5-difluoro-3b,4,4a,5-tetrahydro-1H-cyclopropa[3,4]cyclopenta[1,2-c]pyrazol-1-yl)acetamide] are 530 pM and more than 100000 pM.
With `O=C(Cn1nc(C(F)F)c2c1C(F)(F)[C@@H]1C[C@H]21)N[C@@H](Cc1cc(F)cc(F)c1)c1nc(-c2ccc(Cl)cn2)cc(=O)n1-c1ccc(Cl)c2c(NS(=O)(=O)C3CC3)nn(CC(F)F)c12` (atropisomer, axis not shown; (P)) [Example 35, N-((S)-1-((1P)-1-(4-chloro-3-(cyclopropanesulfonamido)-1-(2,2-difluoroethyl)-1H-indazol-7-yl)-4-(5-chloropyridin-2-yl)-6-oxo-1,6-dihydropyrimidin-2-yl)-2-(3,5-difluorophenyl)ethyl)-2-((3bS,4aR)-3-(difluoromethyl)-5,5-difluoro-3b,4,4a,5-tetrahydro-1H-cyclopropa[3,4]cyclopenta[1,2-c]pyrazol-1-yl)acetamide], the EC50 in series [1] was 720 pM. In addition, in series [2], the CC50 at 4 days was more than 100000 pM.
The matching figures for `CC(C)(C#Cc1cc(=O)n(-c2ccc(Cl)c3c(NS(=O)(=O)C4CC4)nn(CC(F)F)c23)c([C@H](Cc2cc(F)cc(F)c2)NC(=O)Cn2nc(C(F)(F)F)c3c2C(F)(F)[C@@H]2C[C@H]32)n1)S(C)(=O)=O` (atropisomer, axis not shown; (P)) [Example 36, N-((S)-1-((1P)-1-(4-chloro-3-(cyclopropanesulfonamido)-1-(2,2-difluoroethyl)-1H-indazol-7-yl)-4-(3-methyl-3-(methylsulfonyl)but-1-yn-1-yl)-6-oxo-1,6-dihydropyrimidin-2-yl)-2-(3,5-difluorophenyl)ethyl)-2-((3bS,4aR)-5,5-difluoro-3-(trifluoromethyl)-3b,4,4a,5-tetrahydro-1H-cyclopropa[3,4]cyclopenta[1,2-c]pyrazol-1-yl)acetamide]: 160 pM and more than 100000 pM.
In the same order, the values of `CCOc1ccc(-c2cc(=O)n(-c3ccc(Cl)c4c(NS(=O)(=O)C5CC5)nn(CC(F)F)c34)c([C@H](Cc3cc(F)cc(F)c3)NC(=O)Cn3nc(C(F)F)c4c3C(F)(F)[C@@H]3C[C@H]43)n2)cn1` (atropisomer, axis not shown; (P)) [Example 37, N-((S)-1-((1P)-1-(4-chloro-3-(cyclopropanesulfonamido)-1-(2,2-difluoroethyl)-1H-indazol-7-yl)-4-(6-ethoxypyridin-3-yl)-6-oxo-1,6-dihydropyrimidin-2-yl)-2-(3,5-difluorophenyl)ethyl)-2-((3bS,4aR)-3-(difluoromethyl)-5,5-difluoro-3b,4,4a,5-tetrahydro-1H-cyclopropa[3,4]cyclopenta[1,2-c]pyrazol-1-yl)acetamide] are 3700 pM and more than 100000 pM.
Take `O=C(Cn1nc(C(F)F)c2c1C(F)(F)[C@@H]1C[C@H]21)N[C@@H](Cc1cc(F)cc(F)c1)c1nc(-c2ccc(C(F)(F)F)nc2)cc(=O)n1-c1ccc(Cl)c2c(NS(=O)(=O)C3CC3)nn(CC(F)F)c12` (atropisomer, axis not shown; (P)) [Example 38, N-((S)-1-((1P)-1-(4-chloro-3-(cyclopropanesulfonamido)-1-(2,2-difluoroethyl)-1H-indazol-7-yl)-6-oxo-4-(6-(trifluoromethyl)pyridin-3-yl)-1,6-dihydropyrimidin-2-yl)-2-(3,5-difluorophenyl)ethyl)-2-((3bS,4aR)-3-(difluoromethyl)-5,5-difluoro-3b,4,4a,5-tetrahydro-1H-cyclopropa[3,4]cyclopenta[1,2-c]pyrazol-1-yl)acetamide]: the concentration giving a half-maximal response (EC50) in series [1] was determined as 390 pM. In series [2], the CC50 at 4 days is more than 100000 pM.
In the same order, the values of `COc1cncc(-c2cc(=O)n(-c3ccc(Cl)c4c(NS(=O)(=O)C5CC5)nn(CC(F)F)c34)c([C@H](Cc3cc(F)cc(F)c3)NC(=O)Cn3nc(C(F)F)c4c3C(F)(F)[C@@H]3C[C@H]43)n2)n1` (atropisomer, axis not shown; (P)) [Example 40, N-((S)-1-((1P)-1-(4-chloro-3-(cyclopropanesulfonamido)-1-(2,2-difluoroethyl)-1H-indazol-7-yl)-4-(6-methoxypyrazin-2-yl)-6-oxo-1,6-dihydropyrimidin-2-yl)-2-(3,5-difluorophenyl)ethyl)-2-((3bS,4aR)-3-(difluoromethyl)-5,5-difluoro-3b,4,4a,5-tetrahydro-1H-cyclopropa[3,4]cyclopenta[1,2-c]pyrazol-1-yl)acetamide] are 600 pM and more than 100000 pM.
In the same order, the values of `COC(C)(C)C#Cc1cc(=O)n(-c2ccc(Cl)c3c(NS(=O)(=O)C4CC4)nn(CC(F)F)c23)c([C@H](Cc2cc(F)cc(F)c2)NC(=O)Cn2nc(C(F)F)c3c2C(F)(F)[C@@H]2C[C@H]32)n1` (atropisomer, axis not shown; (P)) [Example 41, N-((S)-1-((1P)-1-(4-chloro-3-(cyclopropanesulfonamido)-1-(2,2-difluoroethyl)-1H-indazol-7-yl)-4-(3-methoxy-3-methylbut-1-yn-1-yl)-6-oxo-1,6-dihydropyrimidin-2-yl)-2-(3,5-difluorophenyl)ethyl)-2-((3bS,4aR)-3-(difluoromethyl)-5,5-difluoro-3b,4,4a,5-tetrahydro-1H-cyclopropa[3,4]cyclopenta[1,2-c]pyrazol-1-yl)acetamide] are 64 pM and more than 100000 pM.
In the same order, the values of `CC(F)(F)Cn1ccc(-c2cc(=O)n(-c3ccc(Cl)c4c(NS(=O)(=O)C5CC5)nn(CC(F)F)c34)c([C@H](Cc3cc(F)cc(F)c3)NC(=O)Cn3nc(C(F)F)c4c3C(F)(F)[C@@H]3C[C@H]43)n2)n1` (atropisomer, axis not shown; (P)) [Example 42, N-((S)-1-((1P)-1-(4-chloro-3-(cyclopropanesulfonamido)-1-(2,2-difluoroethyl)-1H-indazol-7-yl)-4-(1-(2,2-difluoropropyl)-1H-pyrazol-3-yl)-6-oxo-1,6-dihydropyrimidin-2-yl)-2-(3,5-difluorophenyl)ethyl)-2-((3bS,4aR)-3-(difluoromethyl)-5,5-difluoro-3b,4,4a,5-tetrahydro-1H-cyclopropa[3,4]cyclopenta[1,2-c]pyrazol-1-yl)acetamide] are 210 pM and more than 100000 pM.
